Measured values reported in patent publication US9115169B2, “Method of treating tumors” (Lytix Biopharma AS, priority 2000, dated 2015).
In brackets after ≈: the same amount, converted by molar mass. Read-outs that look alike come from different tables or passages of the source. Where a SMILES comes first, the peptide text is derived from it. Where no end group is shown, it is not given here. [ ]: non-standard residue; d: D form. The star is where a group is joined. Trp(2-Pmc) = Cc1c(C)c(S(=O)(=O)c2[nH]c3ccccc3c2C[C@H](N)C(=O)O)c(C)c2c1OC(C)(C)CC2; Bip = N[C@@H](Cc1ccc(-c2ccccc2)cc1)C(=O)O; OBn = c1ccc(CO*)cc1

How the values were obtained:
[1] = tested on: Escherichia coli ATCC 25922
[2] = tested on: Staphylococcus aureus ATCC 25923

Row | MIC E. coli ([1]; ATCC 25922) [µg/mL] | MIC E. coli ([1]; Table 8, second column) | MIC S. aureus ([2]; ATCC 25923) [µg/mL] | MIC S. aureus ([2]; Table 8, second column) | MIC E. coli ([1]; Table 8, first column) [µg/mL] | MIC S. aureus ([2]; Table 8, first column) [µg/mL] | Molecule | Minimum inhibitory concentration E. coli ([1]; ATCC 25922) [µg/mL] | Minimum inhibitory concentration S. aureus ([2]; ATCC 25923) [µg/mL]
1 | 20 to 35 | 21.8-38.1 μM/ml | 5 (≈ 5.45 µM) | 5.4 μM/ml | – | – | C[C@H](N)C(=O)N[C@@H](C)C(=O)N[C@@H](Cc1ccc(-c2ccccc2)cc1)C(=O)N[C@@H](Cc1ccc(-c2ccccc2)cc1)C(=O)N[C@@H](CCCNC(=N)N)C(=O)N[C@@H](CCCNC(=N)N)C(N)=O [AABBRR-NH2] (H-AA[Bip][Bip]RR-NH2; N-terminus assumed) | – | –
2 | 150 (≈ 170 µM) | 170.2 μM/ml | 20 to 35 | 22.7-39.7 μM/ml | – | – | C[C@H](N)C(=O)N[C@@H](C)C(=O)N[C@@H](Cc1c[nH]c2ccccc12)C(=O)N[C@@H](Cc1ccc(-c2ccccc2)cc1)C(=O)N[C@@H](CCCNC(=N)N)C(=O)N[C@@H](CCCNC(=N)N)C(N)=O [AAWBRR-NH2] (H-AAW[Bip]RR-NH2; N-terminus assumed) | – | –
3 | 150 to 300 | – | 35 (≈ 39.7 µM) | 39.7 μM/ml | – | – | C[C@H](N)C(=O)N[C@@H](C)C(=O)N[C@@H](Cc1c[nH]c2ccccc12)C(=O)N[C@@H](CCCNC(=N)N)C(=O)N[C@@H](Cc1ccc(-c2ccccc2)cc1)C(=O)N[C@@H](CCCNC(=N)N)C(N)=O [AAWRBR-NH2] (H-AAWR[Bip]R-NH2; N-terminus assumed) | – | –
4 | >200 | 237.0 μM/ml | >200 | 237.0 μM/ml | – | – | C[C@H](N)C(=O)N[C@@H](C)C(=O)N[C@@H](Cc1c[nH]c2ccccc12)C(=O)N[C@@H](Cc1c[nH]c2ccccc12)C(=O)N[C@@H](CCCNC(=N)N)C(=O)N[C@@H](CCCNC(=N)N)C(N)=O [AAWWRR-NH2] (H-AAWWRR-NH2; N-terminus assumed) | – | –
5 | 35 (≈ 39.7 µM) | 39.7 μM/ml | 35 (≈ 39.7 µM) | 39.7 μM/ml | – | – | C[C@H](N)C(=O)N[C@@H](Cc1c[nH]c2ccccc12)C(=O)N[C@@H](CCCNC(=N)N)C(=O)N[C@@H](Cc1ccc(-c2ccccc2)cc1)C(=O)N[C@@H](CCCNC(=N)N)C(=O)N[C@@H](C)C(N)=O [AWRBRA-NH2] (H-AWR[Bip]RA-NH2; N-terminus assumed) | – | –
6 | >150 | 163.4 μM/ml | 5 (≈ 5.45 µM) | 5.4 μM/ml | – | – | C[C@H](NC(=O)[C@H](C)NC(=O)[C@H](Cc1ccc(-c2ccccc2)cc1)NC(=O)[C@@H](N)Cc1ccc(-c2ccccc2)cc1)C(=O)N[C@@H](CCCNC(=N)N)C(=O)N[C@@H](CCCNC(=N)N)C(N)=O [BBAARR-NH2] (H-[Bip][Bip]AARR-NH2; N-terminus assumed) | – | –
7 | 50 (≈ 64.4 µM) | 64.4 μM/ml | 5 (≈ 6.44 µM) | 6.4 μM/ml | – | – | N=C(N)NCCC[C@H](NC(=O)[C@H](CCCNC(=N)N)NC(=O)[C@H](Cc1ccc(-c2ccccc2)cc1)NC(=O)[C@@H](N)Cc1ccc(-c2ccccc2)cc1)C(N)=O [BBRR-NH2] (H-[Bip][Bip]RR-NH2; N-terminus assumed) | – | –
8 | 75 (≈ 81.7 µM) | 81.7 μM/ml | 5 (≈ 5.45 µM) | 5.4 μM/ml | – | – | C[C@H](NC(=O)[C@H](C)NC(=O)[C@H](CCCNC(=N)N)NC(=O)[C@H](CCCNC(=N)N)NC(=O)[C@H](Cc1ccc(-c2ccccc2)cc1)NC(=O)[C@@H](N)Cc1ccc(-c2ccccc2)cc1)C(N)=O [BBRRAA-NH2] (H-[Bip][Bip]RRAA-NH2; N-terminus assumed) | – | –
9 | – | – | – | – | – | – | NCCCC[C@H](N)CN[C@@H](Cc1c[nH]c2ccccc12)C(=O)OCc1ccccc1 [Kψ(CH2NH)WOBzl] | >300 | 300 (≈ 734 µM)
10 | 150 to 300 | – | 10 (≈ 11.4 µM) | 11.3 μM/ml | – | – | C[C@H](NC(=O)[C@H](C)NC(=O)[C@H](CCCNC(=N)N)NC(=O)[C@@H](N)CCCNC(=N)N)C(=O)N[C@@H](Cc1c[nH]c2ccccc12)C(=O)N[C@@H](Cc1ccc(-c2ccccc2)cc1)C(N)=O [RRAAWB-NH2] (H-RRAAW[Bip]-NH2; N-terminus assumed) | – | –
11 | >200 | 237.0 μM/ml | >200 | 237.0 μM/ml | – | – | C[C@H](NC(=O)[C@H](C)NC(=O)[C@H](CCCNC(=N)N)NC(=O)[C@@H](N)CCCNC(=N)N)C(=O)N[C@@H](Cc1c[nH]c2ccccc12)C(=O)N[C@@H](Cc1c[nH]c2ccccc12)C(N)=O [RRAAWW-NH2] (H-RRAAWW-NH2; N-terminus assumed) | – | –
12 | >300 | 340.5 μM/ml | 35 (≈ 39.7 µM) | 39.7 μM/ml | – | – | C[C@H](NC(=O)[C@H](C)NC(=O)[C@H](Cc1ccc(-c2ccccc2)cc1)NC(=O)[C@@H](N)Cc1c[nH]c2ccccc12)C(=O)N[C@@H](CCCNC(=N)N)C(=O)N[C@@H](CCCNC(=N)N)C(N)=O [WBAARR-NH2] (H-W[Bip]AARR-NH2; N-terminus assumed) | – | –
13 | >100 | 99.5 μM/ml | 5 to 10 | 5.0-9.9 μM/ml | – | – | Cc1c(C)c(S(=O)(=O)c2[nH]c3ccccc3c2C[C@H](N)C(=O)N[C@@H](Cc2ccc(-c3ccccc3)cc2)C(=O)N[C@@H](CCCNC(=N)N)C(=O)N[C@@H](CCCNC(=N)N)C(N)=O)c(C)c2c1OC(C)(C)CC2 [WBRR-NH2 Pmc+] (H-[Trp(2-Pmc)][Bip]RR-NH2; N-terminus assumed) | – | –
14 | >100 | 135.3 μM/ml | 20 (≈ 27.1 µM) | 27.1 μM/ml | – | – | N=C(N)NCCC[C@H](NC(=O)[C@H](CCCNC(=N)N)NC(=O)[C@H](Cc1ccc(-c2ccccc2)cc1)NC(=O)[C@@H](N)Cc1c[nH]c2ccccc12)C(N)=O [WBRR-NH2] (H-W[Bip]RR-NH2; N-terminus assumed) | – | –
15 | >300 | 340.5 μM/ml | 75 (≈ 85.1 µM) | 85.1 μM/ml | – | – | C[C@H](NC(=O)[C@H](C)NC(=O)[C@H](CCCNC(=N)N)NC(=O)[C@H](CCCNC(=N)N)NC(=O)[C@H](Cc1ccc(-c2ccccc2)cc1)NC(=O)[C@@H](N)Cc1c[nH]c2ccccc12)C(N)=O [WBRRAA-NH2] (H-W[Bip]RRAA-NH2; N-terminus assumed) | – | –
16 | 150 (≈ 170 µM) | 170.2 μM/ml | 35 (≈ 39.7 µM) | 39.7 μM/ml | – | – | C[C@H](NC(=O)[C@H](C)NC(=O)[C@H](CCCNC(=N)N)NC(=O)[C@@H](N)Cc1c[nH]c2ccccc12)C(=O)N[C@@H](Cc1ccc(-c2ccccc2)cc1)C(=O)N[C@@H](CCCNC(=N)N)C(N)=O [WRAABR-NH2] (H-WRAA[Bip]R-NH2; N-terminus assumed) | – | –
17 | >200 | 237.0 μM/ml | >200 | 237.0 μM/ml | – | – | C[C@H](NC(=O)[C@H](C)NC(=O)[C@H](CCCNC(=N)N)NC(=O)[C@@H](N)Cc1c[nH]c2ccccc12)C(=O)N[C@@H](Cc1c[nH]c2ccccc12)C(=O)N[C@@H](CCCNC(=N)N)C(N)=O [WRAAWR-NH2] (H-WRAAWR-NH2; N-terminus assumed) | – | –
18 | 150 (≈ 170 µM) | 170.2 μM/ml | 35 (≈ 39.7 µM) | 39.7 μM/ml | – | – | C[C@H](NC(=O)[C@H](C)NC(=O)[C@H](CCCNC(=N)N)NC(=O)[C@H](Cc1ccc(-c2ccccc2)cc1)NC(=O)[C@H](CCCNC(=N)N)NC(=O)[C@@H](N)Cc1c[nH]c2ccccc12)C(N)=O [WRBRAA-NH2] (H-WR[Bip]RAA-NH2; N-terminus assumed) | – | –
19 | – | – | 5 (≈ 7.85 µM) | – | – | – | N=C(N)NCCC[C@H](NC(=O)[C@@H](N)Cc1c[nH]c2ccccc12)C(=O)N[C@@H](Cc1c[nH]c2ccccc12)C(=O)OCc1ccccc1 [WRW-OBzl] (H-Trp-Arg-Trp-OBn) | – | –
20 | >200 | 237.0 μM/ml | >200 | 237.0 μM/ml | – | – | C[C@H](NC(=O)[C@H](C)NC(=O)[C@H](Cc1c[nH]c2ccccc12)NC(=O)[C@@H](N)Cc1c[nH]c2ccccc12)C(=O)N[C@@H](CCCNC(=N)N)C(=O)N[C@@H](CCCNC(=N)N)C(N)=O [WWAARR-NH2] (H-WWAARR-NH2; N-terminus assumed) | – | –
21 | >300 | – | 100 (≈ 237 µM) | – | – | – | NCCCC[C@@H](N)C(=O)N[C@@H](Cc1c[nH]c2ccccc12)C(=O)OCc1ccccc1 [kW-OBzl] (H-[dK]-Trp-OBn) | >300 | 100 (≈ 237 µM)
22 | – | 18.0 μM/ml | – | 2.3 μM/ml | 20 | 2.5 | AAWWRR-NH2 Pmc+: hexapeptide amide having the Pmc group (also: Pmc group, position not given here) | – | –

Row | Molecule | MIC E. coli ([1]; ATCC 25922) [µg/mL] | MIC E. coli ([1]; Table 8, second column) | MIC S. aureus ([2]; ATCC 25923) [µg/mL] | MIC S. aureus ([2]; Table 8, second column) | MIC E. coli ([1]; Table 8, first column) [µg/mL] | MIC S. aureus ([2]; Table 8, first column) [µg/mL] | Minimum inhibitory concentration E. coli ([1]; ATCC 25922) [µg/mL] | Minimum inhibitory concentration S. aureus ([2]; ATCC 25923) [µg/mL]
23 | Cc1c(C)c(S(=O)(=O)c2[nH]c3ccccc3c2C[C@H](NC(=O)[C@H](C)NC(=O)[C@H](C)N)C(=O)N[C@@H](CCCNC(=N)N)C(=O)N[C@@H](Cc2ccc(-c3ccccc3)cc2)C(=O)N[C@@H](CCCNC(=N)N)C(N)=O)c(C)c2c1OC(C)(C)CC2 [AAWRBR-NH2 Pmc+] (H-AA[Trp(2-Pmc)]R[Bip]R-NH2; N-terminus assumed) | – | 13.1 μM/ml | – | 2.2 μM/ml | – | – | – | –
24 | Cc1c(C)c(S(=O)(=O)c2[nH]c3ccccc3c2C[C@H](NC(=O)[C@H](C)N)C(=O)N[C@@H](CCCNC(=N)N)C(=O)N[C@@H](Cc2ccc(-c3ccccc3)cc2)C(=O)N[C@@H](CCCNC(=N)N)C(=O)N[C@@H](C)C(N)=O)c(C)c2c1OC(C)(C)CC2 [AWRBRA-NH2 Pmc+] (H-A[Trp(2-Pmc)]R[Bip]RA-NH2; N-terminus assumed) | – | 8.7 μM/ml | – | 2.2 μM/ml | – | – | – | –
25 | Cc1c(C)c(S(=O)(=O)c2[nH]c3ccccc3c2C[C@H](N)C(=O)N[C@@H](CCCNC(=N)N)C(=O)N[C@@H](Cc2ccc(-c3ccccc3)cc2)C(=O)N[C@@H](CCCNC(=N)N)C(=O)N[C@@H](C)C(=O)N[C@@H](C)C(N)=O)c(C)c2c1OC(C)(C)CC2 [WRBRAA-NH2 Pmc+] (H-[Trp(2-Pmc)]R[Bip]RAA-NH2; N-terminus assumed) | – | 13.1 μM/ml | – | 4.4 μM/ml | – | – | – | –
